{"source": "patent US9585896B2", "about": "“Compositions comprising omega-3 fatty acids and vitamin D for psoriasis, and methods and uses thereof” (PRONOVA BIOPHARMA NORGE AS, priority 2012, dated 2017)", "origin": "cited, not measured here", "system": "patients with psoriasis", "details": "over a 12-week period, versus high-dose etanercept", "data": [{"substance": "Ustekinumab: FDA-approved IL-12/IL-23 blocker targeting the common domain p40", "values": [{"measurement": "efficacy in patients with psoriasis", "result": "higher efficacy than high-dose etanercept"}]}]}
